Test results taken from a melting point compilation (Tetko et al.; mined from patent text by program, amines drawn as free bases though some values may be those of a salt).

Structure (SMILES) | melting point [°C]
Cn1ccc(-c2ccc(C(=O)N3Cc4cccnc4Nc4ccccc43)c(Cl)c2)n1 | 196 to 197
CNC(=S)N(CCN1CCC(Nc2nc3ccccc3n2Cc2ccc(F)cc2)CC1)c1nccs1 | 188
COc1cc(C=CC(=O)Nc2c(CCO)nc3c(C)cc(C)cc3c2-c2ccccc2Cl)ccc1O | 133 to 134
CSCCCCCn1c(C)nc2c(N)nc(C)c(C)c21 | 121 to 122
COc1ccc(S(=O)(=O)N(C)C)c(N)c1 | 59 to 64
CNC(=NS(C)(=O)=O)NCCCCc1nc(NC(N)=NCC(F)(F)F)sc1C | 165 to 166
O=C(O)c1c(Br)cc(OCc2ccccc2)cc1OCc1ccccc1 | 90 to 91
COC(=O)C(NC(=O)C=Cc1ccccc1)C(=O)C(C)C (stereo not given) | 74 to 75
CN1C(=O)[C@@H](NC(=O)c2ccccc2I)N=C(c2ccccc2)c2ccccc21 | 115 to 120
CCC(C)(NC(=O)C1=C(C(=O)Nc2cc(OC3CCCC3)c(Cl)cc2F)CCCC1)c1ccc(Cl)cc1 (stereo not given) | 200 to 201
COc1cc2c(cc1OC)CN(CCCc1ccc(NC(=O)c3cnc4ccccc4c3)cc1)CC2 | 184 to 185
COc1ccc(C(=O)Nc2ccc(C(=O)N3CCOCC3)cc2)cc1C12CC3CC(CC(C3)C1)C2 | 238 to 241
Clc1ccc(C(=Cn2cnnn2)OCc2ccccc2)c(Cl)c1 | 92
CCCCCCCCCCCCOc1ccc(C(=O)c2ccc(Sc3ccccc3)cc2)c(O)c1 | 59 to 60
N#CC(C#N)=C1N(CCCN2CCCCC2)CCN1CCCN1CCCCC1 | 99 to 101
CCOC(=O)C1=C(C)NC(=S)N(C(=O)OCC)C1c1ccccc1C(F)(F)F (stereo not given) | 106 to 108
CCCN(CCC)[C@@H]1Cc2c(-c3ncco3)ccc3c2[C@H](CN3)C1 | 103 to 104
CCOC(=O)c1cn(-c2nc(N)c(F)cc2C)c2c(Cl)c(F)c(F)cc2c1=O | 198 to 202
Cc1nc2c3c(ccn2c1C)C(=O)C(O)C(c1ccsc1)N3 (stereo not given) | 222 to 225
CC(=O)Nc1ccc([N+](=O)[O-])cc1-c1cc([N+](=O)[O-])ccc1NC(C)=O | 263 to 265
CN(CCCO)C(=O)c1c2ccc(Cl)cc2c(-c2ccccc2)n1C | 85 to 88
CSC(=NC#N)NCCN1CCC(Nc2nc3cccnc3n2Cc2ccc(F)cc2)CC1 | 172
COC(=O)C=CCC1C(=O)N2C(C(=O)OCC(Cl)(Cl)Cl)=CCC12 (stereo not given) | 101 to 102
CCOC(=O)c1cc2cc(NC(C)C)ccc2nn1 | 167 to 168
CN1CC(C(=O)c2oc(C3CCS(=O)(=O)CC3)cc2Cc2ccc(F)cc2)=C(O)C1=O | 200 to 203

Structure (SMILES) | melting point [°C]
CC(C)c1cccc(S(=O)(=O)n2c(CCCC(=O)O)cc3cc(Cl)ccc32)c1 | 128
CC(=O)SCSc1cnnn1C | 37 to 38
CNC(=C[N+](=O)[O-])NCCSCc1ncccc1Cl | 166
CC1CCOP(C)(=O)C1 (stereo not given) | 78 to 83
COc1cc(Cl)cnc1OCC#Cc1ccc(Cl)cc1 | 109 to 110
NC1CCCCC1N1CCC(Cc2ccc(Cl)cc2)CC1 (stereo not given) | 69.1 to 70.4
CC(C)c1ccc(-c2cc(-c3cccc(C(=O)O)c3)cs2)cc1 | 208 to 209
CC(C)(C)c1cc(/C=C(\C#N)C(=O)NCCCc2ccccc2)cc(C(C)(C)C)c1O | 209
CSCC#Cc1cc(F)c2ncc(C(=O)NCc3ccc(Cl)cc3)c(O)c2c1 | 259 to 261
COc1ccc2cc([C@H](C)C(=O)OCC(=O)N(C)CC(=O)OCCCO[N+](=O)[O-])ccc2c1 | 41 to 43
O=S(=O)(CCN1CCCCC1)Nc1cc(C(c2cc(F)ccc2F)S(=O)(=O)c2ccc(Cl)cc2)c(Cl)cn1 (stereo not given) | 200 to 203
O=P(O)(O)CCCCCCCCCCCO | 109 to 112
N#Cc1cnn2c1N(C(=O)CN1CCN(Cc3ccccc3F)CC1)CC=C2c1cccc(C(F)(F)F)c1 | 188 to 190
CC(C)(C)OC(=O)N[C@H](Cc1ccc(C(F)(F)F)cc1)[C@@H](O)c1ccc(Cl)nc1 (racemic) | 157 to 158
COc1cc([N+](=O)[O-])c2nc(OCc3ccc(Cl)cc3)ccc2c1 | 130 to 134
CC1CCC(C(=O)Nc2ccc(-c3ncc(-c4ccc(NC(=O)C5CCCCC5C)cc4)[nH]3)cc2)CC1 (stereo not given) | 218 to 220
C=CCc1ccc(OCc2ccc(OC)cc2)cc1 | 59 to 61
Cc1c(C)c2c(c(C)c1NC(=O)c1ccccc1)CC(C)(C)O2 | 263 to 265
COc1ccc(C(=O)Nc2c(Cl)cncc2Cl)c2c(CC(=O)O)coc12 | 270 to 278
Cc1c(NC(=O)c2ccc(OC[C@@H]3CCCO3)cc2F)ccc2cc(CNCC(C)(C)O)n(C)c12 | 132 to 133
COc1ccccc1OCC1SCCN1C(=O)CI (stereo not given) | 81 to 83
CCOC(=O)COC(=O)c1c(I)c(NC(C)=O)c(I)c(NC(C)=O)c1I | 270
OC(c1ccccc1)(c1cccc(C(F)(F)F)c1)N1CCCCC1 (stereo not given) | 97 to 100
COc1cccc(-c2nc(N)c(C(N)=O)nc2-c2ccc(=O)n(C(C)C)c2)c1 | 192
CON1C(=O)CC2(CCN(C(=O)CCN3C=CCC(C(N)=O)=C3)CC2)C1=O | 64 to 80
